Measurements as given in patent US20220288048A1, “PIMAVANSERIN FOR TREATING SCHIZOPHRENIA OR FOR TREATING PSYCHOSIS SECONDARY TO NEURODEGENERATIVE DISORDERS OR DEPRESSIVE DISORDER” (ACADIA Pharmaceuticals Inc., priority 2019, published 2022).

Assay: Plasma levels of risperidone in scPCP and ARS-treated mice (mass spectrometer)
Type: in vivo
Details: 3 mg/kg pimavanserin with 0.2 mg/kg risperidone
Description: The behavioral assay, ARS protocol, and scPCP-treatment as described in Example 2 were used. To test the effect of atypical APD and pimavanserin, alone or as con-administration, in scPCP-treated mice (N=10 pairs of mice per group) given 2 h ARS, risperidone (“Risp”) was administered as 0.2 mg/kg or 0.4 mg/kg ip; olanzapine (“Olan”) as 1.0 mg/kg ip; aripiprazole (“Aripi”) as 1.0 mg/kg ip; and pimavanserin (“Pim”) as 3 mg/kg ip to scPCP+ARS(2h) treated male C57BL/6J mice 45 minutes prior to the commencement of the social interaction task in the 10 min social interaction test. Plasma levels of risperidone were measured using a Triple Quad 6500+ mass spectrometer.

CC(C)COc1ccc(CNC(=O)N(Cc2ccc(F)cc2)C2CCN(C)CC2)cc1 [Pimavanserin, N-(4-Fluorophenylmethyl)-N-(1-methylpiperidin-4-yl)-N′-(4-(2-methylpropyloxy)phenylmethyl)carbamide]
Pharmacokinetic effect of pimavanserin on risperidone drug levels: not due to a pharmacokinetic effect
